target: T1, human PAR-2 (hPAR-2) receptor (Homo sapiens, UniProt P55085); assay: In vitro human PAR-2 functional antagonist activity using calcium assays; type: cell-based; details: hPAR-2 endogenously expressed in HEK-293 cells; stimulated by 2-Furoyl-LIGRLO-NH2 peptide; Fluo4AM intracellular calcium, FLIPR Tetra
T1 construct: expressed in HEK-293 cells in an endogenous manner; endogenous in cells; host or cells: HEK-293
T1 sequence (P55085 26-397): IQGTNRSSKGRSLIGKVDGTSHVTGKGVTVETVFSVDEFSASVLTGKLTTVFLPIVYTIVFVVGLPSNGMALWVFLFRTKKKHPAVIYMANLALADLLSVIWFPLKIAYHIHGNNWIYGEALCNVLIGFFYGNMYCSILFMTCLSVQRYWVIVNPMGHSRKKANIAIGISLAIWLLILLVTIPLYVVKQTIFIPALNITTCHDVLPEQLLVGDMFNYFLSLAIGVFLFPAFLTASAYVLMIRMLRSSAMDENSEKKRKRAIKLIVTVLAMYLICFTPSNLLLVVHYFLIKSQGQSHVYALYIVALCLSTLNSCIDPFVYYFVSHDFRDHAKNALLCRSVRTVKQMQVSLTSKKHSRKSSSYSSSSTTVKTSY
In short: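 Antagonism was measured as reduced calcium response to 2-Furoyl-LIGRLO-NH2 (dosed at its 80%-of-maximum concentration), recorded for 5 min. This followed a 10 min compound pre-incubation on Fluo4AM-loaded HEK-293 cells expressing native hPAR-2. Signals were normalised to buffer and agonist-alone controls.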

`CC1(C)CN(c2ccc(F)c(F)c2)c2ncc(C(=O)N3CCN(c4ccc(CC(=O)O)cn4)CC3(C)C)nc21` [Example 171, 2-(6-(4-(5-(3,4-difluorophenyl)-7,7-dimethyl-6,7-dihydro-5H-pyrrolo[2,3-b]pyrazine-2-carbonyl)-3,3-dimethylpiperazin-1-yl)pyridin-3-yl)acetic acid] and `CC1(C)CN(c2ccc(Cl)c(F)c2)c2ncc(C(=O)N3CCN(c4ccc(CC(=O)O)cn4)CC3(C)C)nc21` [Example 173, 2-(6-(4-(5-(4-chloro-3-fluorophenyl)-7,7-dimethyl-6,7-dihydro-5H-pyrrolo[2,3-b]pyrazine-2-carbonyl)-3,3-dimethylpiperazin-1-yl)pyridin-3-yl)acetic acid] cannot be ordered by IC50: < 500 nM for the first, < 500 nM for the second.

`CC1(C)CN(c2ccc(Cl)c(F)c2)c2ccc(C(=O)N3CCN(c4ccc(C(C)(C)C(=O)O)cn4)CC3(C)C)nc21` [Example 175, 2-(6-(4-(1-(4-chloro-3-fluorophenyl)-3,3-dimethyl-2,3-dihydro-1H-pyrrolo[3,2-b]pyridine-5-carbonyl)-3,3-dimethylpiperazin-1-yl)pyridin-3-yl)-2-methylpropanoic acid] and `CC1(C)CCN(c2ccc(Cl)c(F)c2)c2ccc(C(=O)N3CCN(c4ccc(CC(=O)O)cn4)CC3(C)C)nc21` [Example 177, 2-(6-(4-(5-(4-chloro-3-fluorophenyl)-8,8-dimethyl-5,6,7,8-tetrahydro-1,5-naphthyridine-2-carbonyl)-3,3-dimethylpiperazin-1-yl)pyridin-3-yl)acetic acid] cannot be ordered by IC50: < 500 nM for the first, < 500 nM for the second.

First: CC1(C)CN(c2ccc(CC(=O)O)cn2)CCN1C(=O)c1cc2n(n1)C(C)(C)CCN2c1ccc(Cl)c(F)c1 [Example 179, 2-(6-(4-(4-(4-chloro-3-fluorophenyl)-7,7-dimethyl-4,5,6,7-tetrahydropyrazolo[1,5-a]pyrimidine-2-carbonyl)-3,3-dimethylpiperazin-1-yl)pyridin-3-yl)acetic acid]
Second: CC1(C)CN(c2ccc(CC(=O)O)cn2)CCN1C(=O)c1cc2n(n1)C(C)(C)CN(c1ccc(Cl)c(F)c1)C2 [Example 195, 2-(6-(4-(5-(4-chloro-3-fluorophenyl)-7,7-dimethyl-4,5,6,7-tetrahydropyrazolo[1,5-a]pyrazine-2-carbonyl)-3,3-dimethylpiperazin-1-yl)pyridin-3-yl)acetic acid]
The IC50 of the first is higher: > 10000 nM for the first, 500 to 10000 nM for the second.

`Cc1cc(N2CCN(C(=O)c3cnc4c(n3)C(C)(C)CN4c3ccc(F)c(F)c3)C(C)(C)C2)nc(C)c1C(=O)O` [Example 181, 6-(4-(5-(3,4-difluorophenyl)-7,7-dimethyl-6,7-dihydro-5H-pyrrolo[2,3-b]pyrazine-2-carbonyl)-3,3-dimethylpiperazin-1-yl)-2,4-dimethylnicotinic acid] and `Cc1ccc(N2CC(C)(C)c3nc(C(=O)N4CCN(c5cc(C)c(C(=O)O)c(C)n5)CC4(C)C)cnc32)cc1F` [Example 185, 6-(4-(5-(3-fluoro-4-methylphenyl)-7,7-dimethyl-6,7-dihydro-5H-pyrrolo[2,3-b]pyrazine-2-carbonyl)-3,3-dimethylpiperazin-1-yl)-2,4-dimethylnicotinic acid] cannot be ordered by IC50: < 500 nM for the first, < 500 nM for the second.

First: Cc1cc(N2CCN(C(=O)c3cnc4c(n3)C(C)(C)CN4C3CCCC3)C(C)(C)C2)nc(C)c1C(=O)O [Example 183, 6-(4-(5-cyclopentyl-7,7-dimethyl-6,7-dihydro-5H-pyrrolo[2,3-b]pyrazine-2-carbonyl)-3,3-dimethylpiperazin-1-yl)-2,4-dimethylnicotinic acid]
Second: Cc1ccc(N2CC(C)(C)c3nc(C(=O)N4CCN(c5cc(C)c(C(=O)O)c(C)n5)CC4(C)C)cnc32)cc1Cl [Example 189, 6-(4-(5-(3-chloro-4-methylphenyl)-7,7-dimethyl-6,7-dihydro-5H-pyrrolo[2,3-b]pyrazine-2-carbonyl)-3,3-dimethylpiperazin-1-yl)-2,4-dimethylnicotinic acid]
The IC50 of the first is higher: > 10000 nM for the first, < 500 nM for the second. The second is the more potent here.

`Cc1cc(N2CCN(C(=O)c3cnc4c(n3)C(C)(C)CN4c3cc(F)c(Cl)c(F)c3)C(C)(C)C2)nc(C)c1C(=O)O` [Example 187, 6-(4-(5-(4-chloro-3,5-difluorophenyl)-7,7-dimethyl-6,7-dihydro-5H-pyrrolo[2,3-b]pyrazine-2-carbonyl)-3,3-dimethylpiperazin-1-yl)-2,4-dimethylnicotinic acid] and `Cc1cc(N2CCN(C(=O)c3cnc4c(n3)C(C)(C)CN4c3ccc(F)c(Cl)c3)C(C)(C)C2)nc(C)c1C(=O)O` [Example 191, 6-(4-(5-(3-chloro-4-fluorophenyl)-7,7-dimethyl-6,7-dihydro-5H-pyrrolo[2,3-b]pyrazine-2-carbonyl)-3,3-dimethylpiperazin-1-yl)-2,4-dimethylnicotinic acid] cannot be ordered by IC50: < 500 nM for the first, < 500 nM for the second.

`Cc1cc(N2CCN(C(=O)c3cnc4c(n3)C(C)(C)CN4c3ccc(C(F)(F)F)c(Cl)c3)C(C)(C)C2)nc(C)c1C(=O)O` [Example 193, 6-(4-(5-(3-chloro-4-(trifluoromethyl)phenyl)-7,7-dimethyl-6,7-dihydro-5H-pyrrolo[2,3-b]pyrazine-2-carbonyl)-3,3-dimethylpiperazin-1-yl)-2,4-dimethylnicotinic acid] and `Cc1cc(N2CCN(C(=O)c3cnc4c(n3)C3(CCCC3)CN4c3ccc(Cl)c(F)c3)C(C)(C)C2)nc(C)c1C(=O)O` [Example 207, 6-(4-(5′-(4-chloro-3-fluorophenyl)-5′,6′-dihydrospiro[cyclopentane-1,7′-pyrrolo[2,3-b]pyrazine]-2′-carbonyl)-3,3-dimethylpiperazin-1-yl)-2,4-dimethylnicotinic acid] cannot be ordered by IC50: < 500 nM for the first, < 500 nM for the second.

Compared with `CC(C)CN1CC(C)(Cc2ccc(Cl)c(F)c2)c2ccc(C(=O)N3CCN(c4ccc(CC(=O)O)cn4)CC3(C)C)nc21` (stereo not shown) [Example 197, 2-(6-(4-(3-(4-chloro-3-fluorobenzyl)-1-isobutyl-3-methyl-2,3-dihydro-1H-pyrrolo[2,3-b]pyridine-6-carbonyl)-3,3-dimethylpiperazin-1-yl)pyridin-3-yl)acetic acid], `CC1(C)CN(CCc2ccc(F)cc2)c2ncc(C(=O)N3CCN(c4ccc(CC(=O)O)cn4)CC3(C)C)nc21` [Example 211, 2-(6-(4-(5-(4-fluorophenethyl)-7,7-dimethyl-6,7-dihydro-5H-pyrrolo[2,3-b]pyrazine-2-carbonyl)-3,3-dimethylpiperazin-1-yl)pyridin-3-yl)acetic acid] is lower in IC50: > 10000 nM for the first, 500 to 10000 nM for the second.

`Cc1ccc(N2CC(C)(C)c3nc(C(=O)N4CCN(c5ccc(CC(=O)O)cn5)CC4(C)C)cnc32)cc1F` [Example 203, 2-(6-(4-(5-(3-fluoro-4-methylphenyl)-7,7-dimethyl-6,7-dihydro-5H-pyrrolo[2,3-b]pyrazine-2-carbonyl)-3,3-dimethylpiperazin-1-yl)pyridin-3-yl)acetic acid] and `CC1(C)CN(c2ccc(F)c(Cl)c2)c2ncc(C(=O)N3CCN(c4ccc(CC(=O)O)cn4)CC3(C)C)nc21` [Example 205, 2-(6-(4-(5-(3-chloro-4-fluorophenyl)-7,7-dimethyl-6,7-dihydro-5H-pyrrolo[2,3-b]pyrazine-2-carbonyl)-3,3-dimethylpiperazin-1-yl)pyridin-3-yl)acetic acid] cannot be ordered by IC50: < 500 nM for the first, < 500 nM for the second.

With `Cc1cc(N2CCN(C(=O)c3ccc4c(n3)C(C)(C)CN4c3ccc4c(c3)COC4)C(C)(C)C2)nc(C)c1C(=O)O` [Example 209, 6-(4-(1-(1,3-dihydroisobenzofuran-5-yl)-3,3-dimethyl-2,3-dihydro-1H-pyrrolo[3,2-b]pyridine-5-carbonyl)-3,3-dimethylpiperazin-1-yl)-2,4-dimethylnicotinic acid] the IC50 was < 500 nM.

Source: patent US20250320224A1 (DOMAIN THERAPEUTICS, priority 2022, published 2025)
